In patent US4918079A, “Imidazole derivatives as 5-HT3 receptor antagonists” (Beecham Group p.l.c., priority 1987, dated 1990):
Structures can show the parent of a compound that is named as a salt.

Test system: von Bezold-Jarisch reflex evoked by 5-HT
Experiment: Antagonism of the von Bezold-Jarisch reflex evoked by 5-HT in the anaesthetised rat
Format: in vivo
Conditions: iv, male rats, urethane anaesthesia, 5-HT usually 6 μg/kg i.v., heart rate, read-out: ED50 (concentration required to reduce the 5-HT-evoked response to 50% of the control response)
Experimental: Antagonism of the von Bezold-Jarisch reflex
The compounds were evaluated for antagonism of the von Bezold-Jarisch reflex evoked by 5-HT in the anaesthetised rat according to the following method:
Male rats 250≥350 g, were anaesthetised with urethane (1.25 g/kg intraperitoneally) and blood pressure and heart rate recorded as described by Fozard J. R. et al., J. Cardiovasc. Pharmacol. 2, 229-245 (1980). A submaximal dose of 5-HT (usually 6 μg/kg) was given repeatedly by the intravenous route and changes in heart rate quantified. Compounds were given intravenously and the concentration required to reduce the 5-HT-evoked response to 50% of the control response (ED50) was then determined.

**Q.** How did the ED50 turn out when `CC1(C)CN(C(=O)CCc2c[nH]cn2)c2ccccc21` [Example E1, monohydrochloride] was run?
**A.** Its ED50 is 4.2 µg/kg.
